Source: patent US20080058213A1, “Benzoxazole Compounds” (priority 2004, published 2008)

Legend:
Assay type in all cases: in vivo
[1] = system: common lambsquaters (Chenopodium album); experiment: Soil treatment test for upland field (Test Example 2): common lambsquaters; conditions: soil treatment before germination, examined after 3 weeks
Summary of the method: (§1)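 Upland soil in 1/3,000 are pots was seeded and covered; compounds formulated as wettable powders, diluted with water to the prescribed active-ingredient dose, were sprayed uniformly onto the soil surface pre-emergence at 15 liters per are. After 3 weeks in a glasshouse at 25° C average, growth inhibition versus untreated control was graded 0–5.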

[2] = system: wheat; experiment: Soil treatment test for upland field (Test Example 2): phytotoxicity to wheat; conditions: soil treatment before germination, examined after 3 weeks
[3] = system: southern crabgrass; experiment: Foliage treatment test for upland field (Test Example 3): southern crabgrass; conditions: foliage treatment at 1.0-2.0 leaf stage of southern crabgrass, examined after 3 weeks
Summary of the method: (§2)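 Weeds were sown in compost-soil pots in a 25° C glasshouse. Wettable-powder formulations, diluted in water to the prescribed active-ingredient dose, were sprayed at 15 liters per are when southern crabgrass reached the 1.0-2.0 leaf stage. After 3 weeks, growth inhibition versus untreated control was scored 0 (under 20%) to 5 (100%).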

[4] = system: southern crabgrass (Digitaria ciliaris); experiment: Soil treatment test for upland field (Test Example 2): southern crabgrass; conditions: soil treatment before germination, examined after 3 weeks
Summary of the method: as §1

[5] = system: velvetleaf (Abutilon theophrasti); experiment: Soil treatment test for upland field (Test Example 2): velvetleaf; conditions: soil treatment before germination, examined after 3 weeks
Summary of the method: as §1

[6] = system: common purslane; experiment: Foliage treatment test for upland field (Test Example 3): common purslane; conditions: foliage treatment at 1.0-2.0 leaf stage of southern crabgrass, examined after 3 weeks
Summary of the method: as §2

[7] = system: Japanese bulrush (Scirpus juncoides); experiment: Weed control test for paddy field (Test Example 1): Japanese bulrush; conditions: paddy pots, treated at 1.0 leaf stage of barnyard grass, examined after 3 weeks
From the text: (§3) Paddy field soil was filled in 1/10,000 are pots, kneaded with adequate amounts of water and chemical fertilizer, seeded with barnyard grass (Echinochloa crusgalli), Monochoria (Monochoria vaginalis), Japanese bulrush (Scirpus juncoides) and flat sedge (Cyperus serotinus), and further transplanted with 2.0 leaf stage of rice plant. The pots were maintained under the water-filled condition to a depth of 3 cm.
(§4) Wettable powders containing the compounds (1) as identified in Table 1, which were formulated following Production Example 2, were diluted with adequate amount of water and applied to the pots dropwise with pippet at a prescribed dose of the active ingredients per are, at 1.0 leaf stage of the barnyard grass.
(§5) After placing the pots in a glasshouse which was controlled at an average temperature of 25° C. for 3 weeks, herbicidal effect was examined.
(§6) Evaluation of the herbicidal effect is shown in the following six grades, by comparing the condition of untreated control and growth inhibition (%): • 0: 0%-less than 20% • 1: 20%-less than 40% • 2: 40%-less than 60% • 3: 60%-less than 80% • 4: 80%-less than 100% • 5: 100%.

[8] = system: flat sedge (Cyperus serotinus); experiment: Weed control test for paddy field (Test Example 1): flat sedge; conditions: paddy pots, treated at 1.0 leaf stage of barnyard grass, examined after 3 weeks
From the text: as §3, §4, §5, §6

[9] = system: corn; experiment: Soil treatment test for upland field (Test Example 2): phytotoxicity to corn; conditions: soil treatment before germination, examined after 3 weeks
[10] = system: common lambsquaters; experiment: Foliage treatment test for upland field (Test Example 3): common lambsquaters; conditions: foliage treatment at 1.0-2.0 leaf stage of southern crabgrass, examined after 3 weeks
Summary of the method: as §2

[11] = system: common purslane (Portulaca oleracea); experiment: Soil treatment test for upland field (Test Example 2): common purslane; conditions: soil treatment before germination, examined after 3 weeks
Summary of the method: as §1

[12] = system: wheat; experiment: Foliage treatment test for upland field (Test Example 3): phytotoxicity to wheat; conditions: foliage treatment at 1.0-2.0 leaf stage of southern crabgrass, examined after 3 weeks
Summary of the method: (§7)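 Crops sown in compost-mixed soil pots, kept in a glasshouse at 25° C. average. Effect scored after 3 weeks versus untreated control on a 0–5 scale (0 normal growth, 5 complete kill).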

[13] = system: rice plant; experiment: Weed control test for paddy field (Test Example 1): phytotoxicity to rice plant; conditions: paddy pots, treated at 1.0 leaf stage of barnyard grass, examined after 3 weeks
From the text: as §3, §4, §5
Evaluation of phytotoxicity is shown in the following six grades, as compared with the condition of untreated control: • 0: normal growth • 1: little damaged • 2: low damaged • 3: medium damaged • 4: serious damaged • 5: complete killed.

[14] = system: slender amaranth; experiment: Foliage treatment test for upland field (Test Example 3): slender amaranth; conditions: foliage treatment at 1.0-2.0 leaf stage of southern crabgrass, examined after 3 weeks
Summary of the method: as §2

[15] = system: Monochoria (Monochoria vaginalis); experiment: Weed control test for paddy field (Test Example 1): Monochoria; conditions: paddy pots, treated at 1.0 leaf stage of barnyard grass, examined after 3 weeks
From the text: as §3, §4, §5, §6

[16] = system: slender amaranth (Amaranthus viridis); experiment: Soil treatment test for upland field (Test Example 2): slender amaranth; conditions: soil treatment before germination, examined after 3 weeks
Summary of the method: as §1

[17] = system: velvetleaf; experiment: Foliage treatment test for upland field (Test Example 3): velvetleaf; conditions: foliage treatment at 1.0-2.0 leaf stage of southern crabgrass, examined after 3 weeks
Summary of the method: as §2

[18] = system: barnyard grass (Echinochloa crusgalli); experiment: Weed control test for paddy field (Test Example 1): barnyard grass; conditions: paddy pots, treated at 1.0 leaf stage of barnyard grass, examined after 3 weeks
From the text: as §3, §4, §5, §6

[19] = system: soybean; experiment: Soil treatment test for upland field (Test Example 2): phytotoxicity to soybean; conditions: soil treatment before germination, examined after 3 weeks
[20] = system: soybean; experiment: Foliage treatment test for upland field (Test Example 3): phytotoxicity to soybean; conditions: foliage treatment at 1.0-2.0 leaf stage of southern crabgrass, examined after 3 weeks
Summary of the method: as §7

[21] = system: corn; experiment: Foliage treatment test for upland field (Test Example 3): phytotoxicity to corn; conditions: foliage treatment at 1.0-2.0 leaf stage of southern crabgrass, examined after 3 weeks
Summary of the method: as §7

COCC(=Cc1cccc(C(F)(F)F)c1)c1nc2cc(Br)ccc2o1 [Compound 39]
Herbicidal Effect common lambsquaters ([1]; dose 2.5 g ai/a): 5 (100%)
Herbicidal Effect common lambsquaters ([1]; dose 5 g ai/a): 5 (100%)
Phytotoxicity wheat ([2]; dose 2.5 g ai/a): 0
Phytotoxicity wheat ([2]; dose 5 g ai/a): 0
Herbicidal Effect southern crabgrass ([3]; dose 2.5 g ai/a): 4 (80%-less than 100%)
Herbicidal Effect southern crabgrass ([3]; dose 5 g ai/a): 5 (100%)
Herbicidal Effect southern crabgrass ([4]; dose 2.5 g ai/a): 4 (80%-less than 100%)
Herbicidal Effect southern crabgrass ([4]; dose 5 g ai/a): 5 (100%)
Herbicidal Effect velvetleaf ([5]; dose 2.5 g ai/a): 4 (80%-less than 100%)
Herbicidal Effect velvetleaf ([5]; dose 5 g ai/a): 5 (100%)
Herbicidal Effect common purslane ([6]; dose 2.5 g ai/a): 5 (100%)
Herbicidal Effect common purslane ([6]; dose 5 g ai/a): 5 (100%)
Herbicidal Effect Japanese bulrush ([7]; dose 2.5 g ai/a): 3 (60%-less than 80%)
Herbicidal Effect Japanese bulrush ([7]; dose 5 g ai/a): 4 (80%-less than 100%)
Herbicidal Effect Flat sedge ([8]; dose 2.5 g ai/a): 2 (40%-less than 60%)
Herbicidal Effect Flat sedge ([8]; dose 5 g ai/a): 3 (60%-less than 80%)
Phytotoxicity corn ([9]; dose 2.5 g ai/a): 0
Phytotoxicity corn ([9]; dose 5 g ai/a): 1
Herbicidal Effect Common lambsquatters ([10]; dose 2.5 g ai/a): 5 (100%)
Herbicidal Effect Common lambsquatters ([10]; dose 5 g ai/a): 5 (100%)
Herbicidal Effect common purslane ([11]; dose 2.5 g ai/a): 5 (100%)
Herbicidal Effect common purslane ([11]; dose 5 g ai/a): 5 (100%)
Phytotoxicity wheat ([12]; dose 2.5 g ai/a): 0
Phytotoxicity wheat ([12]; dose 5 g ai/a): 1
Phytotoxicity Rice plant ([13]; dose 2.5 g ai/a): 0
Phytotoxicity Rice plant ([13]; dose 5 g ai/a): 0
Herbicidal Effect slender amaranth ([14]; dose 2.5 g ai/a): 5 (100%)
Herbicidal Effect slender amaranth ([14]; dose 5 g ai/a): 5 (100%)
Herbicidal Effect Monochoria vaginalis ([15]; dose 2.5 g ai/a): 5 (100%)
Herbicidal Effect Monochoria vaginalis ([15]; dose 5 g ai/a): 5 (100%)
Herbicidal Effect slender amaranth ([16]; dose 2.5 g ai/a): 5 (100%)
Herbicidal Effect slender amaranth ([16]; dose 5 g ai/a): 5 (100%)
Herbicidal Effect velvetleaf ([17]; dose 2.5 g ai/a): 4 (80%-less than 100%)
Herbicidal Effect velvetleaf ([17]; dose 5 g ai/a): 5 (100%)
Herbicidal Effect Barnyard grass ([18]; dose 2.5 g ai/a): 5 (100%)
Herbicidal Effect Barnyard grass ([18]; dose 5 g ai/a): 5 (100%)
Phytotoxicity soybean ([19]; dose 2.5 g ai/a): 0
Phytotoxicity soybean ([19]; dose 5 g ai/a): 1
Phytotoxicity soybean ([20]; dose 2.5 g ai/a): 1
Phytotoxicity soybean ([20]; dose 5 g ai/a): 1
Phytotoxicity corn ([21]; dose 2.5 g ai/a): 0
Phytotoxicity corn ([21]; dose 5 g ai/a): 1

COCC(=Cc1cccc(C(F)(F)F)c1)c1nc2cc(C(F)(F)F)ccc2o1 [Compound 52]
Herbicidal Effect common lambsquaters ([1]; dose 2.5 g ai/a): 5 (100%)
Herbicidal Effect common lambsquaters ([1]; dose 5 g ai/a): 5 (100%)
Phytotoxicity wheat ([2]; dose 2.5 g ai/a): 1
Phytotoxicity wheat ([2]; dose 5 g ai/a): 1
Herbicidal Effect southern crabgrass ([3]; dose 2.5 g ai/a): 5 (100%)
Herbicidal Effect southern crabgrass ([3]; dose 5 g ai/a): 5 (100%)
Herbicidal Effect southern crabgrass ([4]; dose 2.5 g ai/a): 5 (100%)
Herbicidal Effect southern crabgrass ([4]; dose 5 g ai/a): 5 (100%)
Herbicidal Effect velvetleaf ([5]; dose 2.5 g ai/a): 5 (100%)
Herbicidal Effect velvetleaf ([5]; dose 5 g ai/a): 5 (100%)
Herbicidal Effect common purslane ([6]; dose 2.5 g ai/a): 5 (100%)
Herbicidal Effect common purslane ([6]; dose 5 g ai/a): 5 (100%)
Herbicidal Effect Japanese bulrush ([7]; dose 2.5 g ai/a): 4 (80%-less than 100%)
Herbicidal Effect Japanese bulrush ([7]; dose 5 g ai/a): 5 (100%)
Herbicidal Effect Flat sedge ([8]; dose 2.5 g ai/a): 3 (60%-less than 80%)
Herbicidal Effect Flat sedge ([8]; dose 5 g ai/a): 4 (80%-less than 100%)
Phytotoxicity corn ([9]; dose 2.5 g ai/a): 1
Phytotoxicity corn ([9]; dose 5 g ai/a): 1
Herbicidal Effect Common lambsquatters ([10]; dose 2.5 g ai/a): 5 (100%)
Herbicidal Effect Common lambsquatters ([10]; dose 5 g ai/a): 5 (100%)
Herbicidal Effect common purslane ([11]; dose 2.5 g ai/a): 5 (100%)
Herbicidal Effect common purslane ([11]; dose 5 g ai/a): 5 (100%)
Phytotoxicity wheat ([12]; dose 2.5 g ai/a): 1
Phytotoxicity wheat ([12]; dose 5 g ai/a): 1
Phytotoxicity Rice plant ([13]; dose 2.5 g ai/a): 0
Phytotoxicity Rice plant ([13]; dose 5 g ai/a): 1
Herbicidal Effect slender amaranth ([14]; dose 2.5 g ai/a): 5 (100%)
Herbicidal Effect slender amaranth ([14]; dose 5 g ai/a): 5 (100%)
Herbicidal Effect Monochoria vaginalis ([15]; dose 2.5 g ai/a): 5 (100%)
Herbicidal Effect Monochoria vaginalis ([15]; dose 5 g ai/a): 5 (100%)
Herbicidal Effect slender amaranth ([16]; dose 2.5 g ai/a): 5 (100%)
Herbicidal Effect slender amaranth ([16]; dose 5 g ai/a): 5 (100%)
Herbicidal Effect velvetleaf ([17]; dose 2.5 g ai/a): 5 (100%)
Herbicidal Effect velvetleaf ([17]; dose 5 g ai/a): 5 (100%)
Herbicidal Effect Barnyard grass ([18]; dose 2.5 g ai/a): 5 (100%)
Herbicidal Effect Barnyard grass ([18]; dose 5 g ai/a): 5 (100%)
Phytotoxicity soybean ([19]; dose 2.5 g ai/a): 0
Phytotoxicity soybean ([19]; dose 5 g ai/a): 1
Phytotoxicity soybean ([20]; dose 2.5 g ai/a): 1
Phytotoxicity soybean ([20]; dose 5 g ai/a): 2
Phytotoxicity corn ([21]; dose 2.5 g ai/a): 1
Phytotoxicity corn ([21]; dose 5 g ai/a): 1
